Data set [1] has as its system MDA-MB-436 cells. Briefly: Cell viability assay (MTT). It is filed as cell-based. Particulars: Homo sapiens. The method, then: 5 × 10^3 cells were seeded into each well in 96-well microplates and cultured for 24 h. […] After drug treatment, the cell viabilities were detected by MTT assay.
A further data set has as its target T1, Recombinant Human PARP1 (Homo sapiens, UniProt P09874).
T1 construct: purchased Trevigen
As to the kind of experiment: PARP1 enzymatic inhibition assay (Universal Chemiluminescent PARP Assay Kit). The class given is biochemical. The conditions noted are these: mean ± SD, at least three independent experiments. The method, then:
The PARP1 enzymatic inhibition assay was performed by using Universal Chemiluminescent PARP Assay Kit (Trevigen, Gaithersburg, MD, USA) according to the manufacturer’s instruction and previous report. Briefly, serial dilutions of inhibitor were added to appropriate wells followed by addition of diluted PARP1 enzyme (0.5 Unit/well). After incubation for 10 min at room temperature, distributing 25 μL of 1X PARP Cocktail into each well and incubating the strip wells at room temperature for 60 min. The strip wells were washed with 1X PBS and 0.1% Triton X-100 for twice. Then 50 µL/well of diluted Strep-HRP was added to each well and incubate at room temperature for 60 min. After another wash with PBS, mixing equal volumes of PeroxyGlow™ A and B together and adding 100 µl per well. Finally, immediately taking the chemiluminescent readings. The IC50 values of PARP1 inhibitors were determined using Prism 6 software (GraphPad, San Diego, CA, USA).

Another data set concerns MDA-MB-436 xenograft. As to the kind of experiment: MDA-MB-436 xenograft tumor model. It is filed as in vivo, BALB/c nude mice. The method, then: All experiments protocols used in this study were carried out in accordance with guidelines of the animal ethics committee (Sichuan University). Thirty-two 6–8 weeks-old female BALB/c nude mice (18–20 g) were subcutaneously injected with MDA-MB-436 cells (1 × 10^7 cells/mouse). Until the tumor volumes reached 100 mm^3 (calculated as V = L × W^2/2), the mice were randomly divided into four groups. […] Body weight and the tumor size were determined every day until the end of the study. All mice were sacrificed at the end of drug treatment. The organs of mice such as spleen, liver and kidney were harvested and weighed. Tumor tissues were detached and fixed in 4% paraformaldehyde for immunohistochemistry or lysed for western blotting.
Immunohistochemical analysis was carried out by the method of our previous study. Samples were dehydrated using gradient ethanol, and subsequently paraffin embedded. The paraffin embedded samples were sliced into 5 μm thickness sections. […] Nuclei were counterstained with hematoxylin. The numbers of positive cells were counted in at least 6 fields for each section and statistical analyzed.

For another data set, the system named is PARP1 and PAR. As to the kind of experiment: Western blot analysis of PARP1 and PAR in treated cells. Particulars: MDA-MB-436 cells. It is filed as cell-based. The method, then: (§1) Western blot analysis was carried out briefly as previous description. MDA-MB-436 cells were exposed to OL-1 for indicated time. Both floating cells and adherent were collected. The cell pellets were resuspended with RIPA lysis buffer and PMSF (1 mM) (Beyotime, Haimen, Jiangsu, China) and lysed at 4 °C for 1 h. After 12,000 rpm centrifugation for 10 min, the supernatant was collected to determine the protein content by the BCA Protein Assay Kit (CWBIO, Beijing, China). […] After pre-blocking in TBST with 5% non-fat milk or BSA for 1 h, the membranes were incubated with primary antibodies overnight at 4 °C, and subsequently incubated with HRP-conjugated secondary antibody at room temperature for 1–2 h. Positive signals were detected by using ECL as the HRP substrate after washing with TBST solution.

Data set [2] concerns MDA-MB-436 cells. Briefly: Cell migration assay (scratch wound). It is filed as cell-based. The conditions noted are these: 24 h. As for the experimental part: MDA-MB-436 cells were cultured in 24-well microplates and scratch-wounded by sterilized pipettes. Then the cells were washed with PBS and cultured with normal medium or OL-1. After 24 h incubation, pictures were taken by phase-contrast microscope.

The subject of data set [3] is MDA-MB-436 cells. Briefly: Apoptosis assay (Annexin V-FITC/PI double staining, flow cytometry). The class given is cell-based. The conditions noted are these: MDA-MB-436, 0.25-1 μM, 24 h. As for the experimental part: MDA-MB-436 cells (1 × 10^5 per well) were seeded into 6-well microplates in the presence or absence of OL-1 and cultured for 24 h, then incubated with 500 μL Hoechst 33258 staining solution (0.5 μg/mL) for 30 min at 37 °C. After staining, the apoptotic features were observed under fluorescence microscope. Apoptotic ratio was measured by Annexin-V-FLUOS Staining Kit (Roche, Germany) according to the manufacturer’s protocol followed by flow cytometry (FACS) analysis (Becton Dickinson, Franklin Lakes, NJ).
(Flow cytometry measures light scatter and fluorescence of single cells or particles in a stream.)

Another data set concerns Bax, Bcl-2, Caspase-3. As to the kind of experiment: Western blot analysis of apoptotic markers. It is filed as cell-based. The conditions noted are these: MDA-MB-436 cells. As for the experimental part:
as §1
For orientation: A western blot detects proteins with antibodies after separation by electrophoresis.

[4] abbreviates: recombinant human PARP1, read-out: Enzymatic inhibition (IC50, μM) PARP1.
[5] abbreviates: MDA-MB-436 cells (BRAC1 mutant breast cancer), mean ± SD, at least three independent experiments, read-out: Anti-cell viability (IC50, μM) MDA-MB-436.
Setting [6] is: high dose 25 mg/kg/d i.p., 14 days, vs Iniparib 100 mg/kg/d and low dose 12.5 mg/kg/d, P < 0.05.

“And” between values parts separate entries of the source, which are not always exact repeats. Equal values may be shown once. Read-outs that look alike come from different tables or passages of the source. Bounds are passed on as bounds.

T1 sequence (P09874 whole entry): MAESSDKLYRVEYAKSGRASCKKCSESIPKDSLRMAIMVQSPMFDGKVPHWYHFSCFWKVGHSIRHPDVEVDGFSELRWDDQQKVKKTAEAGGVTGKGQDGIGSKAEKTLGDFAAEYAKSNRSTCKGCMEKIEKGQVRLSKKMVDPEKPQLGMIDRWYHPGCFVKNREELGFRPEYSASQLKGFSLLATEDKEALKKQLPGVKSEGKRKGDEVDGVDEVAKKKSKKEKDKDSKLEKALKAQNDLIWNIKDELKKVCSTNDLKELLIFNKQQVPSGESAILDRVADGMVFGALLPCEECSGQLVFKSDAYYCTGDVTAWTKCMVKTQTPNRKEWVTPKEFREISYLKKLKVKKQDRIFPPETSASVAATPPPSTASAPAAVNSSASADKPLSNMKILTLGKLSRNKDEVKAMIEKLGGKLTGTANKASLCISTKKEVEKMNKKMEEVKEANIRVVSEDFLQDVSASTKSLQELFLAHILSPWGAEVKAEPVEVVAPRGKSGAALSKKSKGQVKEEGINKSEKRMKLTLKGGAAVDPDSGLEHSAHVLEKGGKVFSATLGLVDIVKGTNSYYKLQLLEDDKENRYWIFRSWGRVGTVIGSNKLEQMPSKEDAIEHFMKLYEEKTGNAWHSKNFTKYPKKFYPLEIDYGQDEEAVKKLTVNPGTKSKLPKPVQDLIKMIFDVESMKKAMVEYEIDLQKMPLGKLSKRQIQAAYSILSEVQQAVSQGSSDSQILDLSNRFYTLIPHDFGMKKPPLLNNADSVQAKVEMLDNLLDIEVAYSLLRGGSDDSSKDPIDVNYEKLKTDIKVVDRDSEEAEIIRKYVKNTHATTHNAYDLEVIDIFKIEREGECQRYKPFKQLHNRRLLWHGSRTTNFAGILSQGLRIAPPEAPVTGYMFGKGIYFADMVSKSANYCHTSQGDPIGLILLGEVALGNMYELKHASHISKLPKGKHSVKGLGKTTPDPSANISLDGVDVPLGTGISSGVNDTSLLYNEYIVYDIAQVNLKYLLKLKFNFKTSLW

With `O=C(c1cc(Cc2n[nH]c(=O)c3ccccc23)ccc1F)N1CCN(C(=O)C2CC2)CC1` [Olaparib, reference compound], in the data set with MDA-MB-436 cells [1] (MDA-MB-436, read-out: Anti-cell viability (IC50, μM) MDA-MB-436), the IC50 (as a rule, the point on the concentration scale where inhibition reaches its midpoint) amounted to 1.12 ± 0.77 µM. `CN(C)CCC=C1c2ccccc2Oc2ccccc21` [Compound 28b]: the IC50 on Recombinant Human PARP1 (setting [4]) is > 20 µM. For the molecule `CNCC=C1c2ccccc2CCc2ccccc21` [Compound 11a], at Recombinant Human PARP1 (setting [4]), the IC50 was > 20 µM. `CN(C)CC=C1c2ccccc2Cc2ccccc21` [Compound 26a]: the IC50 on Recombinant Human PARP1 (setting [4]) was > 20 µM. The same measure, in the same setting: to `Clc1ccc(C=C2c3ccccc3CCc3ccccc32)cc1` [Compound 15c] belongs > 20 µM. For the molecule `CN(C)CCCC=C1c2ccccc2Cc2ccccc21` [Compound 26c], on Recombinant Human PARP1 (setting [4]), the IC50 is > 20 µM. In the case of `CC(C)NC(=O)Cc1ccc2c(c1)C(=CCCN(C)C)c1ccccc1CO2` [Compound 33j], the IC50 at Recombinant Human PARP1 (setting [4]) came out at 7.35 ± 1.32 µM; with MDA-MB-436 cells [1] (setting [5]) it was 8.23 ± 1.56 µM. In the case of `CN(C)CCCC=C1c2ccccc2CCc2ccccc21` [Compound 11f], the IC50 at Recombinant Human PARP1 (setting [4]) is > 20 µM. In the case of `CN(C)CCC=C1c2ccccc2CCc2ccccc21` [11d (PA-10), 3-(10,11-dihydro-5H-dibenzo[a,d][7]annulen-5-ylidene)-N,N-dimethylpropan-1-amine], the IC50 at Recombinant Human PARP1 (setting [4]) was 1.65 ± 0.25 µM; in the data set on MDA-MB-436 cells [1] (setting [5]), 5.44 ± 1.01 µM. With `Fc1ccc(C=C2c3ccccc3CCc3ccccc32)cc1` [Compound 15b], the IC50 on Recombinant Human PARP1 (setting [4]) is > 20 µM. On to `CN(C)CCC=C1c2ccccc2CSc2ccccc21` [Compound 23b], for which the IC50 was determined as 1.04 ± 0.17 µM on Recombinant Human PARP1 (setting [4]) and 17.9 ± 2.11 µM with MDA-MB-436 cells [1] (setting [5]). Take `CN(C)CC=C1c2ccccc2CSc2ccccc21` [Compound 23a]: the figures for the IC50 on Recombinant Human PARP1 (setting [4]) and with MDA-MB-436 cells [1] (setting [5]) were 19.2 ± 3.05 µM and > 20 µM, respectively. For the molecule `CN(C)CCCC=C1c2ccccc2Oc2ccccc21` [Compound 28c], at Recombinant Human PARP1 (setting [4]), the IC50 is > 20 µM.

Take `CNCCC=C1c2ccccc2CCc2ccccc21` [Compound 11c]: the IC50 at Recombinant Human PARP1 (setting [4]) is 4.21 µM and 14.2 µM; in the data set on MDA-MB-436 cells [1] (setting [5]), > 20 µM. Consider `CN(C)CCC=C1c2ccccc2Cc2ccccc21` [Compound 26b], for which the IC50 at Recombinant Human PARP1 (setting [4]) is 17.9 ± 2.46 µM; in the data set on MDA-MB-436 cells [1] (setting [5]) it was > 20 µM. The corresponding values for `CN(C)CC=C1c2ccccc2CCc2ccccc21` [Compound 11b] are 16.2 ± 1.24 µM and > 20 µM. In the case of `CN(C)CCCC=C1c2ccccc2CSc2ccccc21` [Compound 23c], the IC50 at Recombinant Human PARP1 (setting [4]) was > 20 µM.

In the case of `CCOC(=O)Cc1ccc2c(c1)C(=CCCN(C)C)c1ccccc1CO2` [Compound 33b], the IC50 at Recombinant Human PARP1 (setting [4]) was > 20 µM.

In the case of `CN(C)CC/C=C1/c2ccccc2COc2ccc(CC(=O)NN)cc21` [33e (OL-1)], in the data set with MDA-MB-436 xenograft (25 mg/kg/d i.p., during the 14 days of treatment, P < 0.01), the “loss of body weight” value was determined as 10.05%. Moreover, in the data set on MDA-MB-436 xenograft (OL-1 treated groups (12.5 and 25 mg/kg/d i.p.)), the “liver, spleen and kidney weights” value is given as “not changed”. Besides, in the data set with MDA-MB-436 xenograft (setting [6]), the tumor volumes entry is reported as “lower than the positive control” and the tumor weights entry is on record as “lower than the positive control”. Also, the “positive ratio of Ki-67 in tumor tissues” value with MDA-MB-436 xenograft (immunohistochemistry, compared to the control group) is recorded as “significantly reduced”. The “decrease of body weights” value in the data set with MDA-MB-436 xenograft (low dose 12.5 mg/kg/d i.p., 14 days) is “not obvious”. Also, the “expression of PAR (western blot)” value in the data set on PARP1 and PAR is reported as “decreased”. Moreover, the “activity of PARP (western blot)” value with PARP1 and PAR (no cleavage of PARP) is recorded as “significantly inhibited”. The cell migration entry in the data set with MDA-MB-436 cells [2] is “could inhibit cell migration”. Besides, the IC50 on Recombinant Human PARP1 (Enzymatic inhibition (IC50, μM) PARP1, recombinant human PARP1) amounted to 0.079 ± 0.013 µM. The apoptotic cell ratio entry with MDA-MB-436 cells [3] was “obviously increased in a concentration-dependent manner”. Further, the IC50 in the data set with MDA-MB-436 cells [1] (BRCA1 mutant MDA-MB-436 cells, MTT, Fig. 11A, read-out: anti-proliferative effects IC50) came to 5.14 µM. Besides, the IC50 in the data set on MDA-MB-436 cells [1] (setting [5]) amounted to 0.736 ± 0.223 µM. Moreover, in the data set with Bax, Bcl-2, Caspase-3, the Bax expression result is “upregulated”, the Bcl-2 expression entry is reported as “downregulated” and the “cleavage of caspase-3” value is listed as “increased”. Turning to `CN(C)CCC=C1c2ccccc2COc2ccc(CC(=O)NCCO)cc21` [Compound 33k], the results for the IC50 on Recombinant Human PARP1 (setting [4]) and in the data set on MDA-MB-436 cells [1] (setting [5]) were 19.1 ± 2.16 µM and > 20 µM, respectively. In the case of `NC(=O)c1ccc(I)c([N+](=O)[O-])c1` [Iniparib, reference compound], the liver weights result in the data set on MDA-MB-436 xenograft (100 mg/kg/d, 14 days, P < 0.01) was “significantly decreased”. In the data set with MDA-MB-436 xenograft (100 mg/kg/d, 14 days, P < 0.05), the spleen weights result is listed as “affected”. Further, the IC50 in the data set on MDA-MB-436 cells [1] (setting [5]) was determined as 14.3 ± 1.56 µM. Turning to `CN(C)CC/C=C1/c2ccccc2COc2ccc(CC(=O)O)cc21` [Compound 31], the results for the IC50 at Recombinant Human PARP1 (setting [4]) and in the data set on MDA-MB-436 cells [1] (setting [5]) were 11.2 ± 1.16 µM and > 20 µM, respectively. For `CN(C)CCC=C1c2ccccc2COc2ccccc21` [Compound 19b], the IC50 on Recombinant Human PARP1 (setting [4]) worked out at 0.75 ± 0.27 µM. As for `COC(=O)Cc1ccc2c(c1)C(=CCCN(C)C)c1ccccc1CO2` [Compound 33a], the IC50 at Recombinant Human PARP1 (setting [4]) is 9.11 µM and 19.1 µM; with MDA-MB-436 cells [1] (setting [5]), > 20 µM. With `C(=C1c2ccccc2CCc2ccccc21)c1ccccc1` [Compound 15a], the IC50 at Recombinant Human PARP1 (setting [4]) is > 20 µM. Turning to `CN(C)CC=C1c2ccccc2COc2ccccc21` [Compound 19a], the figures for the IC50 on Recombinant Human PARP1 (setting [4]) and with MDA-MB-436 cells [1] (setting [5]) were 13.2 ± 2.33 µM and > 20 µM, respectively. As for `COCCCNC(=O)Cc1ccc2c(c1)C(=CCCN(C)C)c1ccccc1CO2` [Compound 33o], the IC50 at Recombinant Human PARP1 (setting [4]) is > 20 µM.

As for `CN(C)CC=C1c2ccccc2Oc2ccccc21` [Compound 28a], the IC50 on Recombinant Human PARP1 (setting [4]) is > 20 µM. As to `CN(C)CCCC=C1c2ccccc2COc2ccccc21` [Compound 19c], the IC50 on Recombinant Human PARP1 (setting [4]) is > 20 µM.

Turning to `Brc1ccc(C=C2c3ccccc3CCc3ccccc32)cc1` [Compound 15d], on Recombinant Human PARP1 (setting [4]), the IC50 is > 20 µM. For `CNCCCC=C1c2ccccc2CCc2ccccc21` [Compound 11e], on Recombinant Human PARP1 (setting [4]), the IC50 was > 20 µM. As for `CN(C)CCC=C1c2ccccc2COc2ccc(CC(=O)NC3CC3)cc21` [Compound 33n], the 50% inhibitory concentration (IC50) at Recombinant Human PARP1 (setting [4]) is > 20 µM. As to `Cc1ccc(C=C2c3ccccc3CCc3ccccc32)cc1` [Compound 15e], the IC50 at Recombinant Human PARP1 (setting [4]) was > 20 µM.

Source of the values: publication PMC5431371, “Crystal structure-based discovery of a novel synthesized PARP1 inhibitor (OL-1) with apoptosis-inducing mechanisms in triple-negative breast cancer” (Scientific Reports, 2016).
